Measured values from patent US10525055B2, “Opioid receptor antagonist prodrugs” (Nirsum Laboratories, Inc., priority 2017, dated 2020).

What was measured:
[1] = Physical characterization of solid state drug substance (PLM, XRPD, DSC, TGA); assay type: physicochemical; conditions: for Thermal Gravimetric Analysis, weight loss: at 120° C., heated from room temperature at 10° C./minute; for X-ray Powder Diffraction: solid state drug substance, XRPD/PLM
Experimental: The analysis of the physical characteristics of drug substances that were in a solid state was conducted using polarized light microscopy (PLM), X-ray powder diffractometer (XRPD) assessment, Differential Scanning calorimetry (DSC) and Thermal Gravimetric Analysis (TGA). For PLM, samples were dispersed in immersion oil and were observed using an ocular lens (10×) and objective lens (20×) under crossed polarizers. For XRPD, samples were run on a diffractometer using the following method: Tube—Cu: K-alpha (λ=1.54179 Å); Generator—Voltage 40 kV, Current 40 mA; Scan scope—3 to 40°; sample rotation speed—15 rpm; scanning rate—10 deg/min. For DSC, ˜1 mg of sample was tested using a crimped aluminum pan and covered by a lid with a hole, heated from room temperature to 300° C. at a speed of 10° C./minute. For TGA, 2-5 mg of sample was placed in an open platinum pan and heated from room temperature to 300° C. at a rate of 10° C./minute.

[2] = Plasma stability assay, rat plasma; assay type: in vitro ADME; conditions: 37° C., 10 μM
[3] = Polymorph screening of solid state drug substances; conditions: for XRPD results (Dried): stirred 50 °C 72 hours, solids dried; for Visual observation 50° C. / Visual observation RT: target conc. 100 mg/ml; for Comment: stability of initial crystal form (pattern A): polymorph screen over Heptane
[4] = molecular target: T1, DOR (Homo sapiens, UniProt P41143); assay: Opioid receptor binding assay, DOR ([3H]-DADLE); conditions: DOR, MaxDose 10000 nM
T1 construct: expressed in transfected cells; membranes prepared from them

[5] = molecular target: T2, KOR (Homo sapiens, UniProt P41145); assay: Opioid receptor binding assay, KOR ([3H]Diprenorphine); conditions: KOR, MaxDose 10000 nM
T2 construct: expressed in transfected cells; membranes prepared from them

[6] = molecular target: T3, MOR (Homo sapiens, UniProt P35372); assay: Opioid receptor binding assay, MOR ([3H]DAMGO); conditions: MOR, MaxDose 10000 nM
T3 construct: expressed in transfected cells; membranes prepared from them

[7] = Dog pharmacokinetic studies, deep intramuscular; assay type: in vivo, Beagle dogs; conditions: dog IM, Cottonseed + 1% Benzyl Alcohol
Experimental: The purpose of this study is to determine the pharmacokinetics of test compounds in plasma, following deep intramuscular administration to Beagle dogs (n=3, unless otherwise specified).
The dose formulation (concentration−400 mg base equivalents/ml in sesame oil+1% benzyl alcohol, unless otherwise specified) was administered via deep intramuscularly (unless otherwise specified). The injection vehicle was also dosed via deep intramuscular route (unless otherwise specified) on contralateral site of each animal at study initiation. The animals were sedated with Propofol at 6 mg/kg via IV administration. Following sedation hair was carefully removed from around the injection site and the area gently cleaned. Care will be taken to avoid irritating skin during shaving and cleaning the injection site. Then dogs will be dosed with deep IM administration. At least 2.5 cm depth from the surface into the central aspect of the quadriceps or biceps femoris muscle, by angling the needle toward the femur. If the needle hits the femur, simply draws back slightly and then inject. The dose volume will be determined by the animals' body weight collected on the morning of dosing day. For repeated administration, the injection sites may be rotated to minimize tissue injury.
Blood samples were collected from a peripheral vessel from restrained, non-sedated animals per sampling time point.
Approximately 0.8 mL blood will be collected at each time point.
Each collected blood sample was centrifuged for 4 minutes at 4° C. and 10000 rpm for plasma collection. Plasma was collected and transferred into a pre-labeled PP tube in dry ice at each time point and precipitated immediately using ACN at a ratio of 1:4 (plasma:ACN). Centrifuged again (10 minutes, 12000 rpm) and obtain the supernatant.
After terminal collection, all supernatant was stored at approximately −80° C. F until bioanalysis.
LC-MS/MS methods for the quantitative determination of test compound in biological matrix were developed. […] The sample analysis was performed concurrently with a set of calibration standards and two sets of QC samples using the LC-MS/MS method.
Plasma concentration versus time data was analyzed by non-compartmental approaches using the Phoenix WinNonlin 6.3 software program. Cmax, Tmax, T1/2, AUC(0-t), AUC(0-inf), MRT(0-t), MRT(0-inf) and graphs of plasma concentration versus time profile were prepared.

[8] = Solubility determination in oil (cottonseed oil, sesame oil); conditions: Sesame oil; heating temp. 60 °C, obs. temp. 40 °C
Experimental: A known amount of test substance (˜40 mg) was weighed into the vial, 100 μL of oil was added and heated to 60° C. and then system was slurried to reach equilibrium. […] Extra oil was added into the vial once compound precipitated out and then the system was re-equilibrated at 1000 rpm at room temperature (25° C.). Final concentration was determined by HPLC method as described below in Table 6a and 6b.

[9] = MTBE, Isopropanol, EtOAc, Acetone

T1 sequence (P41143 whole entry): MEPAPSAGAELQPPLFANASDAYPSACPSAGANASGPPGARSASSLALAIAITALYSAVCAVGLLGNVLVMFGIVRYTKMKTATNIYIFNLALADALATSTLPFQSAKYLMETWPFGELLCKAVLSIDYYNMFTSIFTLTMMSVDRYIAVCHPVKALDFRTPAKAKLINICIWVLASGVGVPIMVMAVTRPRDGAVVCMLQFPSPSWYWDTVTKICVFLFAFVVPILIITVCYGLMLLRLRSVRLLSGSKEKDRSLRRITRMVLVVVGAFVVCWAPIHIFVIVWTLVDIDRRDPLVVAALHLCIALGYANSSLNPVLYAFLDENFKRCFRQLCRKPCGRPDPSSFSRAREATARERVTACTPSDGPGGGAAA
T3 sequence (P35372 whole entry): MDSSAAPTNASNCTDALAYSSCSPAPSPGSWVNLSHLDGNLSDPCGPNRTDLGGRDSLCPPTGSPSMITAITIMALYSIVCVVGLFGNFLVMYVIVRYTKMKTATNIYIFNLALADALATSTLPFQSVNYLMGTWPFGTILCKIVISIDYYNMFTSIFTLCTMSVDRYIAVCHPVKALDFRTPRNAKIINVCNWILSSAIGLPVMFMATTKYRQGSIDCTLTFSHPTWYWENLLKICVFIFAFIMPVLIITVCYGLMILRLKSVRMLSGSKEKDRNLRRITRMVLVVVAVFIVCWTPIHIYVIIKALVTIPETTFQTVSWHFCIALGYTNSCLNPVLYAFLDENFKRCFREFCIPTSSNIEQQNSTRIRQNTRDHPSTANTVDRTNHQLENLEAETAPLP
T2 sequence (P41145 whole entry): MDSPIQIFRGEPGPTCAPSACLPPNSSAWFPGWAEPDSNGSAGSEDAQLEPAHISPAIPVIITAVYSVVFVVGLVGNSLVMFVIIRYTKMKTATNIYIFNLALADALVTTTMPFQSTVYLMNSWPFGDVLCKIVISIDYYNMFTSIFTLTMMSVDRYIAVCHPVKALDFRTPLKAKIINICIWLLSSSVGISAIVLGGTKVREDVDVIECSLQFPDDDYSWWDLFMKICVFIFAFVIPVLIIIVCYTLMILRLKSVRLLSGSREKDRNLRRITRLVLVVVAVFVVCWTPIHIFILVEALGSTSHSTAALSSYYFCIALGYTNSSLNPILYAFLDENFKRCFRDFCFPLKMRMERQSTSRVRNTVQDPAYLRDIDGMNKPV

SMILES | % remaining at time point in minutes, 0 min [2] [%] | % remaining at time point in minutes, 15 min [2] [%] | % remaining at time point in minutes, 120 min [2] [%] | % remaining at time point in minutes, 480 min [2] [%] | % remaining at time point in minutes, 1440 min [2] [%] | XRPD results (Dried) ([3]; Acetone) | Visual observation 50° C. ([3]; Acetone) | Visual observation RT ([3]; Acetone) | XRPD results (Dried) ([3]; EtOAc) | Visual observation 50° C. ([3]; EtOAc) | Visual observation RT ([3]; EtOAc) | XRPD results (Dried) ([3]; Heptane) | Visual observation 50° C. ([3]; Heptane) | Visual observation RT ([3]; Heptane) | XRPD results (Dried) ([3]; Isopropanol) | Visual observation 50° C. ([3]; Isopropanol) | Visual observation RT ([3]; Isopropanol) | XRPD results (Dried) ([3]; MTBE) | Visual observation 50° C. ([3]; MTBE) | Visual observation RT ([3]; MTBE) | further results
CCCCCCCCCCOC(=O)Oc1ccc2c3c1O[C@H]1C(=O)CC[C@@]4(O)C(C2)N(CC2CC2)CC[C@]314 [Compound 10, (4aS,7aR,12bS)-3-(cyclopropylmethyl)-4a-hydroxy-7-oxo-2,3,4,4a,5,6,7,7a-octahydro-1H-4,12-methanobenzofuro[3,2-e]isoquinolin-9-yl decyl carbonate] | 100 | 0 | 0 | 0 | 0 | Pattern A | Clear | Slurry | Pattern A | Clear | Slurry | Pattern A | Slurry | Slurry | Pattern A | Clear | Slurry | Pattern A | Clear | Clear | Thermal Gravimetric Analysis, weight loss [1]: Weight loss of 0.3047%; Comment: stability of initial crystal form (pattern A) [3, 9]: stable form. Same form (pattern A)
C=C1CC[C@@]2(O)C3Cc4ccc(OCOC(=O)CCCCCCCCCCCCC)c5c4[C@@]2(CCN3CC2CC2)[C@H]1O5 [Compound 45, (((4aS,7aS,12bS)-3-(cyclopropylmethyl)-4a-hydroxy-7-methylene-2,3,4,4a,5,6,7,7a-octahydro-1H-4,12-methanobenzofuro[3,2-e]isoquinolin-9-yl)oxy)methyl tetradecanoate] |  |  |  |  |  |  |  |  |  |  |  |  |  |  |  |  |  |  |  |  | %Inh@MaxDose [4]: 71.8%; %Inh@MaxDose [5]: 100.1%; %Inh@MaxDose [6]: 93.7%; AUC0-inf (ng · h/mL) prodrug ([7]; 30 mg/kg): 100 ng·h/mL; Half-life t1/2 (hour) prodrug ([7]; 30 mg/kg): 151 h; AUC0-inf (ng · h/mL) prodrug ([7]; 48 mg/kg): 267 ng·h/mL; Half-life t1/2 (hour) prodrug ([7]; 48 mg/kg): 171 h
CCCCCCCCCCCCCCCCOC(=O)Oc1ccc2c3c1O[C@H]1C(=O)CC[C@@]4(O)C(C2)N(CC2CC2)CC[C@]314 [Compound 21, (4aS,7aR,12bS)-3-(cyclopropylmethyl)-4a-hydroxy-7-oxo-2,3,4,4a,5,6,7,7a-octahydro-1H-4,12-methanobenzofuro[3,2-e]isoquinolin-9-yl hexadecyl carbonate] | 100 | 73.5 | 68.3 | 59.8 | 40.9 | Pattern A | Clear | Slurry | Pattern A | Clear | Slurry | Pattern A | Clear | Slurry | Pattern A | Clear | Slurry | Pattern A | Clear | Clear | X-ray Powder Diffraction [1]: Crystal Form with partial; Comment: stability of initial crystal form (pattern A) [3, 9]: stable form. Same crystal form; Approximate Solubility (mg/mL) in Excipient: Sesame oil [8]: 101 to 134.5 mg/mL
C=C1CC[C@@]2(O)C3Cc4ccc(OC(=O)OCCCCCCCCCCCCCCCC)c5c4[C@@]2(CCN3CC2CC2)[C@H]1O5 [Compound 19, (4aS,7aS,12bS)-3-(cyclopropylmethyl)-4a-hydroxy-7-methylene-2,3,4,4a,5,6,7,7a-octahydro-1H-4,12-methanobenzofuro[3,2-e]isoquinolin-9-yl hexadecyl carbonate] | 100 | 70.1 | 71.5 | 43.8 | 33.3 | Pattern A | Clear | Slurry | Pattern A | Clear | Slurry | Pattern A | Clear | Slurry | Pattern A | Clear | Slurry | Pattern A | Clear | Clear | Thermal Gravimetric Analysis, weight loss [1]: Weight loss of 0.1623%; Comment: stability of initial crystal form (pattern A) [3, 9]: to be stable fomr. Same crystal form
C=C1CC[C@@]2(O)C3Cc4ccc(OC(=O)CCCCCCCCCCCCCCC)c5c4[C@@]2(CCN3CC2CC2)[C@H]1O5 [Compound 56, (4aS,7aS,12bS)-3-(cyclopropylmethyl)-4a-hydroxy-7-methylene-2,3,4,4a,5,6,7,7a-octahydro-1H-4,12-methanobenzofuro[3,2-e]isoquinolin-9-yl palmitate, reference compound] | 100 | 73.1 | 56.7 | 35.8 | 16.8 |  |  |  |  |  |  |  |  |  |  |  |  |  |  |  | Thermal Gravimetric Analysis, weight loss [1]: Weight loss of 0.1815%
C=C1CC[C@@]2(O)C3Cc4ccc(OC(=O)NC(C)(C)C)c5c4[C@@]2(CCN3CC2CC2)[C@H]1O5 [Compound 40, (4aS,7aS,12bS)-3-(cyclopropylmethyl)-4a-hydroxy-7-methylene-2,3,4,4a,5,6,7,7a-octahydro-1H-4,12-methanobenzofuro[3,2-e]isoquinolin-9-yl tert-butylcarbamate] |  |  |  |  |  | Amorphous | Clear | Slurry | Pattern A | Clear | Slurry | Pattern A | Slurry | Slurry | Amorphous | Clear | Slurry | Amorphous | Clear | Clear | X-ray Powder Diffraction [1]: Crystal form with partial; Comment: stability of initial crystal form (pattern A) [3, 9]: stable form. Same crystal form
